# Experimental data reported in patent US8629145B2, “Therapeutic agent for spinal canal stenosis” (Nippon Shinyaku Co., Ltd., priority 2008, dated 2014).
# Tested on: model rats suffering from walking disability due to compression of cauda equina
# Test: walking disability model due to compression of cauda equina (treadmill walking distance)
# Assay type: in vivo, Wistar strain rats
# Conditions: rat, oral twice daily, suspension 0.2 mg/mL in 0.5 w/v % methyl cellulose, until 13th or 20th day after operation; vs control group p<0.01
# Protocol: Wistar strain rats (male; seven weeks age) (Charles Liver Japan) were subjected to a walk training once daily for continuous three or four days using a treadmill (manufactured by Muromachi Kikai). On the last day of the walk training, the animals were grouped and, on the next day, the walking time was measured and then a sham operation or an operation for compressing the cauda equina mentioned below i) was carried out. On the third, seventh, fourteenth and twenty-first days after the operation, walking time was measured. Based on the walking time measured, a walking distance was calculated.
# After measuring the walking time on the third day, the group for which the operation for compressing the cauda equina was carried out was further grouped into a control group and a drug-administered group on the basis of their walking distances on the day when the operation was done and on the third day after the operation. […]
# The treadmill was operated and walking time of each rat was measured using a timer. […]
# As to the evaluation, the control group was evaluated by a Welch test against the sham operation group (##: p<0.01). The drug-administered group was evaluated by a t-test or a Welch test against the control group (★★: p<0.01).
compound,measurement,value
"CC(C)N(CCCCOCC(=O)NS(C)(=O)=O)c1cnc(-c2ccccc2)c(-c2ccccc2)n1 [compound A, 2-{4-[N-(5,6-diphenylpyrazin-2-yl)-N-isopropylamino]butyloxy}-N-(methylsulfonyl)acetamide]",disability in walking due to compression of cauda equina (walking distance),significantly improved
